Patent publication US20250314668A1, “DNAZYMES FOR SENSING AND IMAGING TARGET MOLECULES” (BOARD OF REGENTS, THE UNIVERSITY OF TEXAS SYSTEM, priority 2024, published 2025)
Where two headings read alike, the source gives them in different places. {3IABkFQ} = Iowa Black FQ quencher

Legend:
[1] = Copper sensor signal turn-on and background in solution (inactive controls, upgraded version); assay type: biochemical; conditions: for activity of inactive sequences to fluorophore labeled substrates: screening of Cu^2+ DNAzyme inactive sequences
Method: FIGS. 14A-14B depict fluorescence resulting of upgraded Cu DNAzyme. The concentration of Cu^2+ is 8 μM, the concentration of ascorbate is 50 μM.
Since the DNAzyme sensors are exposed to various nucleic acid enzymes in biological samples during imaging, it is common to have some extent of sensor degradation and dehybridization, which can increase the background signal. Although the study applied modifications to the end of DNA strands to minimize the exonuclease activities, the background could not be fully removed. Thus, it is critical to estimate the background signal levels for accurate background subtraction and more precise signal quantification.
In this iE design, the catalytic core sequence are converted into complement sequence of the original active sequences.

SH-SY5Y cells = assay: Fluorescence imaging of Cu^+ and Cu^2+ in live SH-SY5Y cells (PDTC, BCS, Aβ40); assay type: cell-based, human
cultured cell lines = assay: Iron redox changes in cultured cell lines with ferroptosis inducers and NCOA4 regulators; assay type: cell-based
[2] = Point mutation gel cleavage assay of Fe^3+ B12 DNAzyme and substrate (heat map); assay type: biochemical; conditions: 100 μM FeCl3, pH 5.5, overnight; for activity of mutated substrate strand normalized to original Fe^3+ B12 Substrate: original DNAzyme strand
Method: (§1) FIG. 5 depicts a heat map illustrating the impact of point mutations within the catalytic core of the Fe^3+ B12 DNAzyme, against the unaltered Fe^3+ B12 substrate strand for comparative analysis with 5 mM Bis Tris, 40 mM Sodium Acetate, 200 mM NaCl at pH 5.5 with 100 μM FeCl3. The reaction occurred overnight at room temperature and analyzed by polyacrylamide gel electrophoresis.
as §1, with “FIG. 6” for “FIG. 5”, “B12 Substrate strand,” for “B12 DNAzyme,”, “B12 DNAzyme” for “B12 substrate”
(§2) Point mutations were intentionally introduced into the Fe^3+ B12 DNAzyme catalytic core, and subsequently assessed in comparison to the unaltered Fe^3+ B12 substrate strand under controlled reaction conditions. These conditions included a solution comprising 5 mM Bis Tris, 40 mM Sodium Acetate, 200 mM NaCl at pH 5.5, with concentrations of 250 nM for both the mutated B12 DNAzyme Strand and the FAM-labeled Original B12 Substrate Strand, along with 100 μM FeCl3. The reaction proceeded overnight at ambient temperature, followed by analysis via electrophoresis on a 15% denaturing gel.
as §2, with “Fe^3+ B12 Substrate Strand's catalytic core,” for “Fe^3+ B12 DNAzyme catalytic core,”, “Fe^3+ B12 DNAzyme strand under” for “Fe^3+ B12 substrate strand under”, “both the Original B12 DNAzyme” for “both the mutated B12 DNAzyme”, “the FAM-labeled mutated B12 Substrate” for “the FAM-labeled Original B12 Substrate”

HepG2 or Hela cells = assay: Simultaneous imaging of labile Fe^2+ and Fe^3+ in living cells treated with Tf or DFO; assay type: cell-based; conditions: treated cells
Method: For delivery of DNAzyme sensors using PEI (66, 67), the corresponding Fe(II)-H5-ErS, Fe(II)-H5-iErS, Fe(III)-B12-ErS, and Fe(III)-B12-iErS (final concentration of 10 μM) were mixed in the Fe^2+ buffer and Fe^3+ buffer separately. The mixtures were annealed at 95° C. for 5 min and stored at room temperature to allow full hybridization. PEI (25 kDa) was dissolved in water at 1 mg/ml. […] The normal cell medium was replaced with iron-deficient medium before the PEI-ErS or PEI-iErS was added to the cells grown in the plates.
After incubating HepG2 cells with PEI-ErS or PEI-iErS complex for 4 hours, cells were washed with phosphate-buffered saline (PBS) twice to remove excess amounts of complexes in medium. Then, the cells were stained by Hoechst 33258 for 15 min. Images were obtained using a Zeiss LSM 880 confocal microscope at 63× oil objective lens with numerical aperture 1.40 and immersion medium Immersol 518 F (Zeiss) at the UIUC IGB Core Facilities. Florescence emission of Hoechst 33258 was measured over 450 to 500 nm with excitation at 401 nm. Fe(II)-H5 was excited by 488 nm and measured over 500 to 550 nm, and Fe(III)-B12 was excited at 633 nm and measured over 640 to 700 nm. A laser power of 67% and pinhole size of 1 […] (AU) were used for the cellular images. Acquired images were analyzed by ImageJ using JACoP (88, 89). No background subtraction, Z-stacks, Gaussian blur filter, or change thresholds were performed for visualizing the figures. For cell fluorescence quantification, the study quantified the average fluorescence signals intensity in five cells (for TurboFect transfected cells) or five LysoTracker-labeled regions in different cells (for PEI transfected cells), per picture and three pictures per group with Image J (88), for the statistical comparison between groups.
Simultaneous imaging of labile Fe^2+ and Fe^3+ in living cells: HepG2 or Hela cells were cultured in glass-bottom dishes until about 70% confluence. The cells were pretreated with iron-deficient MEM containing either 100 μM DFO, 100 μM ferric ammonium citrate, […] holo-Tf, or 50 μM Tf for 4 hours, and then, the medium was replaced with an iron-deficient MEM containing PEI-ErS or PEI-iErS complexes or Opti-MEM containing 1 μl of TurboFect transfection reagent as described above for 4 hours. Before imaging, the cells were stained by LysoTracker Red and Hoechst 33258 for 15 min. After washing with PBS, the cells were incubated in iron-deficient MEM or regular DMEM, respectively, during the imaging.
Data processing and statistical analysis: To have a direct comparison of the iron amount between groups, the background signals were normalized by subtracting the fluorescence signals in iErS groups from the ErS groups (F-F0). No Z-stacks or change thresholds were used for statistical analysis. Graphs were plotted with GraphPad (GraphPad Software Inc.) or Origin (OriginLabs Corporation) and correspond to a single experiment. Bars represent means±SEM. Two-tailed distribution and two-sample equal variance t test were used for analyzing significance. Dixon's Q tests were performed to identify and exclude outliners. *P<0.05, **P<0.01, and ***P <0.001. […] The presented data described the quantification from single representative replicates from those biological replicates.

Cu2 iE complement: inactive enzyme strand (TTTCGCCATCTTCTGGTCCTTATAGTGACT; DNA, backbone not given here; further chemistry not fully specified)
activity of inactive sequences to fluorophore labeled substrates [1]: minimum activity

Cc1cc(-c2ccc(S(=O)(=O)O)cc2)c2ccc3c(-c4ccc(S(=O)(=O)O)cc4)cc(C)nc3c2n1 [BCS, bathocuproine disulphonate]
fluorescence intensity of copper DNAzyme (SH-SY5Y cells; 150 μM or 200 μM BCS overnight): significant decrease

Cu2 iE polyT: inactive enzyme strand (TTTCGCCATCTTCTTTTTTTTATAGTGACT; DNA, backbone not given here; further chemistry not fully specified)
activity of inactive sequences to fluorophore labeled substrates [1]: minimum activity

Amyloid-β (1-40) peptide [Aβ40]
fluorescence signals of intracellular Cu^+ and Cu^2+ DNAzyme (SH-SY5Y cells; pretreated 24 h with monomers, oligomers and fibrils): enhanced

S=C(S)N1CCCC1 [PDTC, pyrrolidine dithiocarba-mate]
fluorescence signal of both Cu^+ and Cu^2+ sensor (SH-SY5Y cells; 50 PM PDTC): significant increase
fluorescence signal of both Cu^+ and Cu^2+ sensor (SH-SY5Y cells; addition of PDTC with Cu^2+, dose-dependent manner): increased

COC(=O)CNC(=O)C(=O)OC [DMOG]
Fe^3+/Fe^2+ ratio (Fe redox) with elevation of NCOA4 (cultured cell lines; cells incubated with NCOA4 stimulator): increase

Fe^3+ B12 DNAzyme C20T (GCGGCATGCGCGTTTGCGGTACCTAAACGCTCCTAATAGAG; DNA, backbone not given here)
activity of mutated DNAzyme strand normalized to original Fe^3+ B12 DNAzyme ([2]; FAM-labeled original substrate): heightened activity

Fe^3+ B12 Substrate C15A (CTCTATTAGGGAGAATCGCATGCCGC; listed as DNA, chemistry not fully specified)
activity of mutated substrate strand normalized to original Fe^3+ B12 Substrate [2]: heightened activity

Fe^3+ B12 Substrate A14G (CTCTATTAGGGAGGCTCGCATGCCGC; listed as DNA, chemistry not fully specified)
activity of mutated substrate strand normalized to original Fe^3+ B12 Substrate [2]: heightened activity

CC(=O)N(O)CCCCCNC(=O)CCC(=O)N(O)CCCCCNC(=O)CCC(=O)N(O)CCCCCN [DFO, deferoxamine, reference compound]
decrease of the Fe^3+/Fe^2+ ratio (HepG2 or Hela cells): 2.4 fold

Cu2 iE polyT 3IBFQ: inactive enzyme strand (TTTCGCCATCTTCTTTTTTTTATAGTGACT; DNA, 3' {3IABkFQ}, backbone not given here)
background signal of inactive sequence ([1]; both fluorophore and quencher labels): minimum background signal

Aβ40 oligomers: oligomeric aggregation state of Aβ40
fluorescence intensity of Cu^+ and Cu^2+ DNAzyme (SH-SY5Y cells; 10 μM, 24 h): significantly increased

[Cl-].[Cl-].[Co+2] [CoCl2]
Fe^3+/Fe^2+ ratio (Fe redox) with elevation of NCOA4 (cultured cell lines): increase
